Laboratory results: US6355799B1, “Substituted benzene compounds, process for their preparation, and herbicidal and defoliant compositions containing them” (ISK Americas Incorporated, priority 1997, dated 2002)

Legend:
Format in all cases: in vivo
[1] = tested on: upland rice (Oryza sp., var. Tebonnet, RICE); test: Pre-emerge test, crop safety; conditions: rating scale 0-100, 14 days after application
Summary of the method: (§1)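 Compounds in acetone were track-sprayed at 15-1000 g ai/ha (187 l/ha) on sandy loam pots: pre-emerge one day after seeding, post-emerge at 2-3 leaf stage with 0.25% v/v non-ionic surfactant. Phytotoxicity was rated 14 days later on a 0 (no damage) to 100 (complete death) scale.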

[2] = tested on: field corn (Zea mays L., var. Dekalb 535, CORN); test: Pre-emerge test, crop safety; conditions: rating scale 0-100, 14 days after application
Summary of the method: as §1

[3] = tested on: upland rice (Oryza sp., var. Tebonnet, RICE); test: Post-emerge test, crop safety; conditions: rating scale 0-100 (0 no damage, 100 complete death), 14 days after application
Summary of the method: (§2)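 Rating: 0–100 visual injury, 14 DAA. Application: acetone, 187 l/ha, 15–1000 g ai/ha, flat-fan track sprayer with nozzle 40–45 cm above soil or canopy. Post-emerge runs used 0.25% v/v surfactant on 2–3 leaf plants.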

[4] = tested on: field corn (Zea mays L., var. Dekalb 535, CORN); test: Post-emerge test, crop safety; conditions: rating scale 0-100 (0 no damage, 100 complete death), 14 days after application
Summary of the method: as §2

[5] = tested on: green foxtail (Setaria viridis, SETVI); test: Pre-emerge test, greenhouse herbicide activity screening; conditions: rating scale 0-100, 14 days after application
Summary of the method: (§3)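 Compounds in acetone were track-sprayed at 15–1000 g ai/ha: pre-emergence onto soil sown the previous day, then top-watered to incorporate and later bottom-watered; post-emergence onto 2–3 leaf plants with 0.25% v/v surfactant, bottom-watered only. Ratings on a 0–100 phytotoxicity scale were taken at day 14.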

[6] = tested on: large crabgrass (Digitaria sanguinalis, DIGSA); test: as above; conditions: rating scale 0-100, 14 days after application
Summary of the method: as §3

[7] = tested on: ivyleaf morningglory (Ipomoea hederacea, IPOHE); test: as above; conditions: rating scale 0-100, 14 days after application
Summary of the method: as §3

[8] = tested on: barnyardgrass (Echinochloa crus-galli, ECHCG); test: as above; conditions: rating scale 0-100, 14 days after application
Summary of the method: as §3

[9] = tested on: sicklepod (Cassia obtusifolia, CASOB); test: as above; conditions: rating scale 0-100, 14 days after application
Summary of the method: as §3

[10] = tested on: lambsquarters (Chenopodium album, CHEAL); test: as above; conditions: rating scale 0-100, 14 days after application
Summary of the method: as §3

[11] = tested on: velvetleaf (Abutilon theophrasti, ABUTH); test: as above; conditions: rating scale 0-100, 14 days after application
Summary of the method: as §3

[12] = tested on: common ragweed (Ambrosia artemisizfolia L., AMBEL); test: as above; conditions: rating scale 0-100, 14 days after application
Summary of the method: as §3

[13] = tested on: johnsongrass (Sorghum halepense, SORHA); test: as above; conditions: rating scale 0-100, 14 days after application
Summary of the method: as §3

[14] = tested on: redroot pigweed (Amaranthus retroflexus, AMARE); test: as above; conditions: rating scale 0-100, 14 days after application
Summary of the method: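 Visual ratings on a 0-100 scale (0 no damage, 100 all plants dead) were taken at 14 days after treatment. Rates of 15-1000 g ai/ha in acetone, 187 l/ha, were sprayed onto soil one day after planting (pre-emerge) or onto 2-3 leaf plants with 0.25% v/v surfactant (post-emerge).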

[15] = tested on: green foxtail (Setaria viridis, SETVI); test: Post-emerge test, greenhouse herbicide activity screening; conditions: rating scale 0-100 (0 no damage, 100 complete death), 14 days after application
Summary of the method: (§4)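 Each test used a mechanized track sprayer delivering 187 l/ha of acetone solution at 15–1000 g ai/ha. Post-emerge foliage at 2–3 leaves was treated with added 0.25% v/v non-ionic surfactant and bottom-watered only. Injury was assessed on day 14, where 100 means total kill.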

[16] = tested on: large crabgrass (Digitaria sanguinalis, DIGSA); test: as above; conditions: rating scale 0-100 (0 no damage, 100 complete death), 14 days after application
Summary of the method: as §4

[17] = tested on: ivyleaf morningglory (Ipomoea hederacea, IPOHE); test: as above; conditions: rating scale 0-100 (0 no damage, 100 complete death), 14 days after application
Summary of the method: as §4

[18] = tested on: barnyardgrass (Echinochloa crus-galli, ECHCG); test: as above; conditions: rating scale 0-100 (0 no damage, 100 complete death), 14 days after application
Summary of the method: as §4

[19] = tested on: sicklepod (Cassia obtusifolia, CASOB); test: as above; conditions: rating scale 0-100 (0 no damage, 100 complete death), 14 days after application
Summary of the method: as §4

[20] = tested on: redroot pigweed (Amaranthus retroflexus, AMARE); test: as above; conditions: rating scale 0-100 (0 no damage, 100 complete death), 14 days after application
Summary of the method: as §4

[21] = tested on: lambsquarters (Chenopodium album, CHEAL); test: as above; conditions: rating scale 0-100 (0 no damage, 100 complete death), 14 days after application
Summary of the method: as §4

[22] = tested on: velvetleaf (Abutilon theophrasti, ABUTH); test: as above; conditions: rating scale 0-100 (0 no damage, 100 complete death), 14 days after application
Summary of the method: as §4

[23] = tested on: johnsongrass (Sorghum halepense, SORHA); test: as above; conditions: rating scale 0-100 (0 no damage, 100 complete death), 14 days after application
Summary of the method: as §4

C=CCOC(=O)C(C)(Cl)Cc1c(OC)c(Cl)cc(F)c1-n1c(=O)cc(C(F)(F)F)n(C)c1=O (stereo not shown) [14-43]
Pre-emerge phytotoxicity rating, crop damage RICE ([1]; 63 g ai/ha): 10
Pre-emerge phytotoxicity rating, crop damage RICE ([1]; 250 g ai/ha): 40
Pre-emerge phytotoxicity rating, crop damage CORN ([2]; 63 g ai/ha): 0
Pre-emerge phytotoxicity rating, crop damage CORN ([2]; 250 g ai/ha): 20
Post-emerge phytotoxicity rating RICE (crop damage) ([3]; Rate 63 g ai/ha): 95
Post-emerge phytotoxicity rating RICE (crop damage) ([3]; Rate 250 g ai/ha): 100
Post-emerge phytotoxicity rating CORN (crop damage) ([4]; Rate 63 g ai/ha): 95
Post-emerge phytotoxicity rating CORN (crop damage) ([4]; Rate 250 g ai/ha): 100
Pre-emerge herbicidal activity, phytotoxicity rating SETVI ([5]; 63 g ai/ha): 30
Pre-emerge herbicidal activity, phytotoxicity rating SETVI ([5]; 250 g ai/ha): 95
Pre-emerge herbicidal activity, phytotoxicity rating DIGSA ([6]; 63 g ai/ha): 80
Pre-emerge herbicidal activity, phytotoxicity rating DIGSA ([6]; 250 g ai/ha): 100
Pre-emerge herbicidal activity, phytotoxicity rating IPOHE ([7]; 63 g ai/ha): 0
Pre-emerge herbicidal activity, phytotoxicity rating IPOHE ([7]; 250 g ai/ha): 0
Pre-emerge herbicidal activity, phytotoxicity rating ECHCG ([8]; 63 g ai/ha): 0
Pre-emerge herbicidal activity, phytotoxicity rating ECHCG ([8]; 250 g ai/ha): 80
Pre-emerge herbicidal activity, phytotoxicity rating CASOB ([9]; 63 g ai/ha): 0
Pre-emerge herbicidal activity, phytotoxicity rating CASOB ([9]; 250 g ai/ha): 0
Pre-emerge herbicidal activity, phytotoxicity rating CHEAL ([10]; 63 g ai/ha): 100
Pre-emerge herbicidal activity, phytotoxicity rating CHEAL ([10]; 250 g ai/ha): 100
Pre-emerge herbicidal activity, phytotoxicity rating ABUTH ([11]; 63 g ai/ha): 90
Pre-emerge herbicidal activity, phytotoxicity rating ABUTH ([11]; 250 g ai/ha): 100
Pre-emerge herbicidal activity, phytotoxicity rating AMBEL ([12]; 63 g ai/ha): 0
Pre-emerge herbicidal activity, phytotoxicity rating AMBEL ([12]; 250 g ai/ha): 100
Pre-emerge herbicidal activity, phytotoxicity rating SORHA ([13]; 63 g ai/ha): 20
Pre-emerge herbicidal activity, phytotoxicity rating SORHA ([13]; 250 g ai/ha): 30
Pre-emerge herbicidal activity, phytotoxicity rating AMARE ([14]; 63 g ai/ha): 100
Pre-emerge herbicidal activity, phytotoxicity rating AMARE ([14]; 250 g ai/ha): 100
Post-emerge Herbicidal Activity, phytotoxicity rating SETVI ([15]; Rate 63 g ai/ha): 90
Post-emerge Herbicidal Activity, phytotoxicity rating SETVI ([15]; Rate 250 g ai/ha): 100
Post-emerge Herbicidal Activity, phytotoxicity rating DIGSA ([16]; Rate 63 g ai/ha): 80
Post-emerge Herbicidal Activity, phytotoxicity rating DIGSA ([16]; Rate 250 g ai/ha): 100
Post-emerge Herbicidal Activity, phytotoxicity rating IPOHE ([17]; Rate 63 g ai/ha): 95
Post-emerge Herbicidal Activity, phytotoxicity rating IPOHE ([17]; Rate 250 g ai/ha): 100
Post-emerge Herbicidal Activity, phytotoxicity rating ECHCG ([18]; Rate 63 g ai/ha): 100
Post-emerge Herbicidal Activity, phytotoxicity rating ECHCG ([18]; Rate 250 g ai/ha): 100
Post-emerge Herbicidal Activity, phytotoxicity rating CASOB ([19]; Rate 63 g ai/ha): 40
Post-emerge Herbicidal Activity, phytotoxicity rating CASOB ([19]; Rate 250 g ai/ha): 90
Post-emerge Herbicidal Activity, phytotoxicity rating AMARE ([20]; Rate 63 g ai/ha): 100
Post-emerge Herbicidal Activity, phytotoxicity rating AMARE ([20]; Rate 250 g ai/ha): 100
Post-emerge Herbicidal Activity, phytotoxicity rating CHEAL ([21]; Rate 63 g ai/ha): 100
Post-emerge Herbicidal Activity, phytotoxicity rating CHEAL ([21]; Rate 250 g ai/ha): 100
Post-emerge Herbicidal Activity, phytotoxicity rating ABUTH ([22]; Rate 63 g ai/ha): 100
Post-emerge Herbicidal Activity, phytotoxicity rating ABUTH ([22]; Rate 250 g ai/ha): 100
Post-emerge Herbicidal Activity, phytotoxicity rating SORHA ([23]; Rate 63 g ai/ha): 80
Post-emerge Herbicidal Activity, phytotoxicity rating SORHA ([23]; Rate 250 g ai/ha): 95
